From the supplement of paper PMC10307832

Experiments:
Assay in all cases: relative viability (nuclei count vs DMSO), 5 days (fraction); higher = more cells survive
Halofuginone + Olaparib = compound: O=C(C[C@H]1NCCC[C@@H]1O)Cn1cnc2cc(Br)c(Cl)cc2c1=O (racemic) [Halofuginone] + O=C(c1cc(Cc2n[nH]c(=O)c3ccccc23)ccc1F)N1CCN(C(=O)C2CC2)CC1 [Olaparib] (partner 8 µM)
Procedure, shortened: (§1)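 Lung cancer cell lines were pin-tool dosed in 1536-well plates on the day after seeding, with either a lone drug or a fixed anchor-drug dose plus five library-drug doses (not always all listed) in √10 steps. Nuclei were counted on 4× images after 5 days. Relative viability is the ratio of treated-well to vehicle-well nuclei counts, with each value a median of duplicate plates.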

Decitabine + Alpelisib = compound: Nc1ncn([C@H]2C[C@H](O)[C@@H](CO)O2)c(=O)n1 [Decitabine] + Cc1nc(NC(=O)N2CCC[C@H]2C(N)=O)sc1-c1ccnc(C(C)(C)C(F)(F)F)c1 [Alpelisib] (partner 2 µM)
Procedure, shortened: as §1

[1] = compound: O=C(C[C@H]1NCCC[C@@H]1O)Cn1cnc2cc(Br)c(Cl)cc2c1=O (racemic) [Halofuginone] + CC1(C)CCC(c2ccc(Cl)cc2)=C(CN2CCN(c3ccc(C(=O)NS(=O)(=O)c4ccc(N[C@H](CCN5CCOCC5)CSc5ccccc5)c(S(=O)(=O)C(F)(F)F)c4)cc3)CC2)C1 [Navitoclax] (partner 0.5 µM)
Procedure, shortened: as §1

[2] = compound: O=C(C[C@H]1NCCC[C@@H]1O)Cn1cnc2cc(Br)c(Cl)cc2c1=O (racemic) [Halofuginone] + N=C(N)NC(=N)NCCc1ccccc1 [Phenformin] (partner 250 µM)
Procedure, shortened: as §1

| Cell Line | relative viability (Halofuginone + Olaparib; first compound 0.001 µM) | relative viability (Halofuginone + Olaparib; first compound 0.003162 µM) | relative viability (Halofuginone + Olaparib; first compound 0.01 µM) | relative viability (Halofuginone + Olaparib; first compound 0.03162 µM) | relative viability (Halofuginone + Olaparib; first compound 0.1 µM) | relative viability (Decitabine + Alpelisib; first compound 0.04 µM) | relative viability (Decitabine + Alpelisib; first compound 0.1265 µM) | relative viability (Decitabine + Alpelisib; first compound 0.4 µM) | relative viability (Decitabine + Alpelisib; first compound 1.265 µM) | relative viability (Decitabine + Alpelisib; first compound 4 µM) | relative viability ([1]; first compound 0.001 µM) | relative viability ([1]; first compound 0.003162 µM) | relative viability ([1]; first compound 0.01 µM) | relative viability ([1]; first compound 0.03162 µM) | relative viability ([1]; first compound 0.1 µM) | relative viability ([2]; first compound 0.001 µM) | relative viability ([2]; first compound 0.003162 µM) | relative viability ([2]; first compound 0.01 µM) | relative viability ([2]; first compound 0.03162 µM) | relative viability ([2]; first compound 0.1 µM) |
| --- | --- | --- | --- | --- | --- | --- | --- | --- | --- | --- | --- | --- | --- | --- | --- | --- | --- | --- | --- | --- |
| 201T | 0.851 | 0.906 | 0.853 | 0.827 | 0.83 | 1 | 1.08 | 1.12 | 0.949 | 0.923 | 1.22 | 1.15 | 1.24 | 1.13 | 1.28 | 0.459 | 0.472 | 0.442 | 0.457 | 0.348 |
| A549 | 0.48 | 0.413 | 0.378 | 0.288 | 0.262 | 0.647 | 0.56 | 0.494 | 0.214 | 0.165 | 1.33 | 1.27 | 1.02 | 0.676 | 0.0879 | 0.186 | 0.215 | 0.148 | 0.163 | 0.109 |
| A-427 | 0.826 | 0.695 | 0.77 | 0.704 | 0.597 | 0.695 | 0.462 | 0.303 | 0.265 | 0.232 | 1.08 | 0.984 | 0.903 | 0.898 | 0.946 | 0.304 | 0.346 | 0.326 | 0.293 | 0.272 |
| ABC-1 | 1.06 | 0.793 | 0.617 | 0.847 | 1.09 | 0.833 | 0.816 | 0.786 | 0.731 | 0.753 |  |  |  |  |  | 0.27 | 0.223 | 0.24 | 0.234 | 0.209 |
| BEN | 1.06 | 1 | 1.12 | 1.02 | 0.626 | 0.943 | 0.908 | 0.651 | 0.564 | 0.426 | 0.0684 | 0.132 | 0.0701 | 0.0526 | 0.0549 | 0.263 | 0.263 | 0.26 | 0.285 | 0.237 |
| CAL-12T | 0.785 | 0.717 | 0.709 | 0.754 | 0.548 | 0.686 | 0.997 | 0.793 | 0.514 | 0.34 | 1.54 | 1.37 | 1.24 | 0.974 | 0.565 | 0.582 | 0.592 | 0.555 | 0.603 | 0.509 |
| COR-L23 | 0.349 | 0.348 | 0.346 | 0.292 | 0.171 | 0.412 | 0.346 | 0.311 | 0.225 | 0.213 | 1.03 | 1.1 | 1.03 | 0.976 | 0.126 | 0.489 | 0.431 | 0.482 | 0.415 | 0.303 |
| COR-L 105 | 0.695 | 0.607 | 0.698 | 0.664 | 0.625 | 0.763 | 0.873 | 0.717 | 0.427 | 0.306 | 0.939 | 0.396 | 0.733 | 0.595 | 0.46 | 0.492 | 0.467 | 0.488 | 0.516 | 0.381 |
| Calu-6 | 0.611 |  | 0.584 | 0.327 | 0.135 | 0.736 | 0.681 | 0.547 | 0.322 | 0.279 | 0.896 | 0.956 | 0.884 | 0.258 | 0.092 |  |  |  |  |  |
| ChaGo-K-1 | 0.397 | 0.452 | 0.407 | 0.398 | 0.442 |  |  |  |  |  | 0.88 | 0.587 | 1.01 | 0.859 | 0.975 | 0.473 | 0.486 | 0.573 | 0.392 | 0.462 |
| EBC-1 | 0.752 | 0.706 | 0.532 | 0.303 | 0.169 | 0.516 | 0.453 | 0.421 | 0.305 | 0.271 | 0.535 | 0.35 | 0.274 | 0.244 | 0.109 |  |  |  |  |  |
| EKVX | 0.861 | 0.849 | 0.789 | 0.843 | 0.645 | 0.635 | 0.565 | 0.522 | 0.393 | 0.318 | 1.06 | 0.971 | 0.984 | 0.905 | 0.797 | 0.236 | 0.241 | 0.232 | 0.226 | 0.199 |
| EMC-BAC-2 | 0.538 | 0.486 | 0.471 | 0.476 | 0.299 | 0.718 | 0.699 | 0.481 | 0.442 | 0.41 | 1.14 | 1.29 | 1.14 | 1.13 | 0.87 | 0.615 | 0.546 | 0.503 | 0.521 | 0.338 |
| EPLC-272H | 1.09 | 0.775 | 0.583 | 0.764 | 0.445 | 0.723 | 0.688 |  | 0.606 | 0.525 | 1.14 | 1.22 | 0.945 | 1.21 | 1.17 | 0.314 | 0.267 | 0.311 | 0.312 | 0.286 |
| H3255 | 0.622 | 0.563 | 0.522 | 0.514 | 0.544 | 0.222 | 0.579 | 0.358 | 0.428 | 0.436 | 0.541 | 0.481 | 0.548 | 0.495 | 0.553 | 0.399 | 0.372 | 0.293 | 0.401 | 0.369 |
| HARA | 1.16 | 0.885 | 0.572 | 0.664 | 0.345 | 0.73 | 0.749 | 0.474 | 0.365 | 0.249 | 1.14 | 1.11 | 1.14 | 1.12 | 1.14 | 0.486 | 0.465 | 0.487 | 0.48 | 0.363 |
| HCC-15 | 0.765 | 0.82 | 0.727 | 0.678 | 0.665 | 0.799 | 0.773 | 0.441 | 0.438 | 0.302 | 0.704 | 0.732 | 0.686 | 0.651 | 0.593 | 0.471 | 0.534 | 0.46 | 0.467 | 0.429 |
